pKi: −log10 of the molar value.
Assays:
[1] = molecular target: T1, Recombinant human NK3 (hNK3) receptor (Homo sapiens, UniProt P29371); test: NK3 receptor binding, [3H]SR142801 displacement, membrane preparations; conditions: second value of the cell pKi NK1/NK3; hNK3 receptor, [3H]SR142801
T1 construct: expressed in transfected cells
T1 sequence (P29371 1-465): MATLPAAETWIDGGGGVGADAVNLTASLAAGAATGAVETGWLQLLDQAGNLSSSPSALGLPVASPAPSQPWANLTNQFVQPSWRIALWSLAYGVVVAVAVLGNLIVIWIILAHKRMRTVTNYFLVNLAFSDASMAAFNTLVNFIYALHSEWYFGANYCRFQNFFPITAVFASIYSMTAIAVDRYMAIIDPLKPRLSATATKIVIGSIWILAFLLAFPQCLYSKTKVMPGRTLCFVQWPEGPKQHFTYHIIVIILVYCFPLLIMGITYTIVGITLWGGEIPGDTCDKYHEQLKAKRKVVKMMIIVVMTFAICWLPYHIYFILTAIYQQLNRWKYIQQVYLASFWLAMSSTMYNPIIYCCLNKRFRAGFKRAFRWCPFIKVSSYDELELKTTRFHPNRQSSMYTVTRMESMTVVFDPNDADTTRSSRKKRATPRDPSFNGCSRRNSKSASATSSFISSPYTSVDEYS
How it was run: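 Room-temperature, 90-min filtration binding assay using about 2.5 μg recombinant receptor membranes per well; separation on polyethyleneimine-treated glass-fibre (GF/C) filters and liquid scintillation read-out, with 10 μM SB222200 for nonspecific binding.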

human NK1 receptor = human NK1 receptor (Homo sapiens, UniProt P25103); test: NK1 receptor binding, [3H]substance P displacement, CHO cell membranes; conditions: first value of the cell pKi NK1/NK3; human NK1 receptor, [3H]substance P
Sequence of human NK1 receptor (P25103 whole entry): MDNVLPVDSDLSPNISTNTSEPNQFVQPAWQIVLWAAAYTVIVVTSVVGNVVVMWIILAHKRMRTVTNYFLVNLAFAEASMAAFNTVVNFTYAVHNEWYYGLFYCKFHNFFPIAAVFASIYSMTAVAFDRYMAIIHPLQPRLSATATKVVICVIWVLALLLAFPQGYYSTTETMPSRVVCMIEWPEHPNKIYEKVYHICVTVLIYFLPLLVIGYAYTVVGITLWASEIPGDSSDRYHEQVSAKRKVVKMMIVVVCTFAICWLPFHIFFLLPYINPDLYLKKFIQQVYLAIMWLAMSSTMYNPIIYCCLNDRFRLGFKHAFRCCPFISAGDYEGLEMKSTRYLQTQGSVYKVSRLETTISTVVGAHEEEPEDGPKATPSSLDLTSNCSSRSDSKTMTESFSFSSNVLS

Row | SMILES | pKi [1] | pKi (human NK1 receptor)
1 | C[C@H](O)CNc1cc(-c2ccccc2Br)c(N(C)C(=O)C(C)(C)c2cc(C(F)(F)F)cc(C(F)(F)F)c2)cn1 [Example 131, (S)-2-(3,5-Bis-trifluoromethyl-phenyl)-N-[4-(2-bromo-phenyl)-6-(2-hydroxy-propylamino)-pyridin-3-yl]-N-methyl-isobutyramide] | 8.37 | 8.97
2 | CN(C(=O)C(C)(C)c1cc(C(F)(F)F)cc(C(F)(F)F)c1)c1cnc(N[C@H]2CC[C@H](O)CC2)cc1-c1ccccc1Br [Example 132, trans-2-(3,5-Bis-trifluoromethyl-phenyl)-N-[4-(2-bromo-phenyl)-6-(4-hydroxy-cyclohexylamino)-pyridin-3-yl]-N-methyl-isobutyramide] | 8.14 | 8.88
3 | CC(=O)N[C@H]1CCN(c2cc(-c3ccccc3Br)c(N(C)C(=O)C(C)(C)c3cc(C(F)(F)F)cc(C(F)(F)F)c3)cn2)C1 [Example 133, (S)-N-[6-(3-Acetylamino-pyrrolidin-1-yl)-4-(2-bromo-phenyl)-pyridin-3-yl]-2-(3,5-bis-trifluoromethyl-phenyl)-N-methyl-isobutyramide] | 8.70 | 9.10
4 | CN(C(=O)C(C)(C)c1cc(C(F)(F)F)cc(C(F)(F)F)c1)c1cnc(N2C[C@H](O)C[C@H]2CO)cc1-c1ccc(Cl)c(Cl)c1 [Example 135, (2S,4R)-2-(3,5-Bis-trifluoromethyl-phenyl)-N-[4-(3,4-dichloro-phenyl)-6-(4-hydroxy-2-hydroxymethyl-pyrrolidin-1-yl)-pyridin-3-yl]-N-methyl-isobutyramide] | 7.50 | 8.37
5 | CN(C(=O)C(C)(C)c1cc(C(F)(F)F)cc(C(F)(F)F)c1)c1cnc(N2C[C@H](O)C[C@H]2CO)cc1-c1ccc(Cl)cc1Cl [Example 136, (2S,4R)-2-(3,5-Bis-trifluoromethyl-phenyl)-N-[4-(2,4-dichloro-phenyl)-6-(4-hydroxy-2-hydroxymethyl-pyrrolidin-1-yl)-pyridin-3-yl]-N-methyl-isobutyramide] | 8.84 | 8.79
6 | CN(C(=O)C(C)(C)c1cc(C(F)(F)F)cc(C(F)(F)F)c1)c1cnc(N2CC[C@H](O)[C@H]2CO)cc1-c1ccc(Cl)cc1Cl [Example 137, (2R,3S)-2-(3,5-Bis-trifluoromethyl-phenyl)-N-[4-(2,4-dichloro-phenyl)-6-(3-hydroxy-2-hydroxymethyl-pyrrolidin-1-yl)-pyridin-3-yl]-N-methyl-isobutyramide] | 8.87 | 8.55
7 | C[C@@H](O)[C@@H](CO)Nc1cc(-c2ccccc2Cl)c(N(C)C(=O)C(C)(C)c2cc(C(F)(F)F)cc(C(F)(F)F)c2)cn1 [Example 144, (1R,2R)-2-(3,5-Bis-trifluoromethyl-phenyl)-N-[4-(2-chloro-phenyl)-6-(2-hydroxy-1-hydroxymethyl-propylamino)-pyridin-3-yl]-N-methyl-isobutyramide] | 8.92 | 8.44
8 | C[C@H](O)[C@@H](CO)Nc1cc(-c2ccccc2Cl)c(N(C)C(=O)C(C)(C)c2cc(C(F)(F)F)cc(C(F)(F)F)c2)cn1 [Example 145, (1R,2S)-2-(3,5-Bis-trifluoromethyl-phenyl)-N-[4-(2-chloro-phenyl)-6-(2-hydroxy-1-hydroxymethyl-propylamino)-pyridin-3-yl]-N-methyl-isobutyramide] | 8.10 | 9.08
9 | C[C@@H](O)[C@H](CO)Nc1cc(-c2ccccc2Cl)c(N(C)C(=O)C(C)(C)c2cc(C(F)(F)F)cc(C(F)(F)F)c2)cn1 [Example 146, (1S,2R)-2-(3,5-Bis-trifluoromethyl-phenyl)-N-[4-(2-chloro-phenyl)-6-(2-hydroxy-1-hydroxymethyl-propylamino)-pyridin-3-yl]-N-methyl-isobutyramide] | 7.93 | 9.05
10 | CCCCCCN(CCO)c1cc(-c2ccccc2Cl)c(N(C)C(=O)C(C)(C)c2cc(C(F)(F)F)cc(C(F)(F)F)c2)cn1 [Example 148, 2-(3,5-Bis-trifluoromethyl-phenyl)-N-{4-(2-chloro-phenyl)-6-[hexyl-(2-hydroxy-ethyl)-amino]-pyridin-3-yl}-N-methyl-isobutyramide] | 7.92 | 8.68
11 | CCCCCN(CCO)c1cc(-c2ccccc2Cl)c(N(C)C(=O)C(C)(C)c2cc(C(F)(F)F)cc(C(F)(F)F)c2)cn1 [Example 149, 2-(3,5-Bis-trifluoromethyl-phenyl)-N-{4-(2-chloro-phenyl)-6-[(2-hydroxy-ethyl)-pentyl-amino]-pyridin-3-yl}-N-methyl-isobutyramide] | 8.21 | 8.89
12 | CN(C(=O)C(C)(C)c1cc(C(F)(F)F)cc(C(F)(F)F)c1)c1cnc(N(CCO)CCCO)cc1-c1ccccc1Cl [Example 150, 2-(3,5-Bis-trifluoromethyl-phenyl)-N-{4-(2-chloro-phenyl)-6-[(2-hydroxy-ethyl)-(3-hydroxy-propyl)-amino]-pyridin-3-yl}-N-methyl-isobutyramide] | 9.01 | 8.88

The remaining molecules from weak to strong by pKi [1], led by results:

Row | pKi [1] | pKi (human NK1 receptor) | SMILES
13 | 7.98 | 9.14 | C[C@H](O)[C@H](CO)Nc1cc(-c2ccccc2Cl)c(N(C)C(=O)C(C)(C)c2cc(C(F)(F)F)cc(C(F)(F)F)c2)cn1 [Example 147, (1S,2S)-2-(3,5-Bis-trifluoromethyl-phenyl)-N-[4-(2-chloro-phenyl)-6-(2-hydroxy-1-hydroxymethyl-propylamino)-pyridin-3-yl]-N-methyl-isobutyramide]
14 | 8.44 | 8.52 | Cc1ccccc1-c1cc(NC(CO)CO)ncc1N(C)C(=O)C(C)(C)c1cc(C(F)(F)F)cc(C(F)(F)F)c1 [Example 143, 2-(3,5-Bis-trifluoromethyl-phenyl)-N-[6-(2-hydroxy-1-hydroxymethyl-ethylamino)-4-o-tolyl-pyridin-3-yl]-N-methyl-isobutyramide]
15 | 8.59 | 8.89 | Cc1cc(F)ccc1-c1cc(NC(CO)CO)ncc1N(C)C(=O)C(C)(C)c1cc(C(F)(F)F)cc(C(F)(F)F)c1 [Example 142, 2-(3,5-bis-trifluoromethyl-phenyl)-N-[4-(4-fluoro-2-methyl-phenyl)-6-(2-hydroxy-1-hydroxymethyl-ethylamino)-pyridin-3-yl]-N-methyl-isobutyramide]
16 | 8.64 | 8.78 | CN(C(=O)C(C)(C)c1cc(C(F)(F)F)cc(C(F)(F)F)c1)c1cnc(N2CC[C@H](O)[C@H]2CO)cc1-c1ccccc1Br [Example 130, (2R,3S)-2-(3,5-Bis-trifluoromethyl-phenyl)-N-[4-(2-bromo-phenyl)-6-(3-hydroxy-2-hydroxymethyl-pyrrolidin-1-yl)-pyridin-3-yl]-N-methyl-isobutyramide]
17 | 8.66 | 8.65 | CN(C(=O)C(C)(C)c1cc(C(F)(F)F)cc(C(F)(F)F)c1)c1cnc(N(CCO)CCO)cc1-c1ccccc1Br [Example 134, N-[6-[Bis-(2-hydroxy-ethyl)-amino]-4-(2-bromo-phenyl)-pyridin-3-yl]-2-(3,5-bis-trifluoromethyl-phenyl)-N-methyl-isobutyramide]
18 | 9.00 | 8.78 | CN(C(=O)C(C)(C)c1cc(C(F)(F)F)cc(C(F)(F)F)c1)c1cnc(N2CC[C@H](O)[C@H]2CO)cc1-c1ccccc1Cl [Example 138, (2R,3S)-2-(3,5-Bis-trifluoromethyl-phenyl)-N-[4-(2-chloro-phenyl)-6-(3-hydroxy-2-hydroxymethyl-pyrrolidin-1-yl)-pyridin-3-yl]-N-methyl-isobutyramide]
